According to publication PMC12461331, “Screening of Medicines for Malaria Venture Open Boxes Identifies Potent SARS-CoV‑2 Papain-like Protease (PL^pro) Inhibitors” (ACS Omega, 2025):
“And” between values parts separate entries of the source, which are not always exact repeats. Equal entries are not always repeated. Where two headings read alike, the source gives them in different places.

How the values were obtained:
[1] = molecular target: PL^pro (Severe acute respiratory syndrome coronavirus 2, UniProt P0DTD1); conditions: 20 μM compound, 5 μM enzyme, average of triplicates with SD
[2] = PAMPA
[3] = human, microsomes
[4] = female, BALB/c, mouse, 1 h, 2 μM, pH 7.4
[5] = physchem; conditions: pH 7.4
[6] = in vitro; conditions: PAMPA
[7] = physchem; conditions: 25 °C, kinetic from dmso stock
[8] = in vitro; conditions: human, microsomes, pH 7.4
[9] = in vitro; conditions: CD1, mouse, microsomes, pH 7.4
[10] = Human liver microsomal stability assay; conditions: for half-life at 0.5 μM / microsomal CLint at 0.5 μM: human; for microsomal CLint at 0.5 μM: pH 7.4, HLM CLint(mic)
[11] = Mouse liver microsomal stability assay; conditions: CD1, mouse, pH 7.4
[12] = Plasma stability; conditions: for plasma stability remaining 60 min: mouse plasma; for half-life at 2 μM: female, BALB/c, mouse, plasma, pH 7.4
[13] = Kinetic solubility; conditions: 25 °C, kinetic from dmso stock
[14] = Chromatographic distribution coefficient (eLogD7.4); conditions: pH 7.4
[15] = Parallel artificial membrane permeability assay (PAMPA)
[16] = molecular target: SARS-CoV-2 PL^pro (Severe acute respiratory syndrome coronavirus 2, UniProt P0DTD1); type: biochemical
[17] = tested on: SARS-CoV-2; conditions: Vero CCL-81 cells
[18] = microsomes, human liver microsomes
[19] = microsomes, pH 7.4, HLM T 1/2, human liver microsomes

SMILES	ΔT m [1]	permeability (in words) [2]	plasma stability remaining 60 min [4] [%]	chromatographic logD [5]	Papp at 5 h, 10 μM [6] [×10⁻⁶ cm/s]	solubility kinetic at 24 h ([7]; pH 2, aqueous buffer) [µg/mL]	solubility kinetic at 24 h ([7]; pH 7.4, aqueous buffer) [µg/mL]	microsomal CLint at 0.5 μM [8] [µL/min/mg]	microsomal CLint at 0.5 μM [9] [µL/min/mg]	half-life at 0.5 μM ([10]; liver microsomes, pH 7.4) [min]	half-life at 0.5 μM ([11]; liver microsomes) [min]	plasma stability remaining 60 min [12] [%]	solubility kinetic at 24 h ([13]; pH 2, aqueous buffer) [µg/mL]	solubility kinetic at 24 h ([13]; pH 7.4, aqueous buffer) [µg/mL]	microsomal CLint at 0.5 μM [10, 18] [µL/min/mg]	half-life at 0.5 μM [10, 19] [min]	half-life at 0.5 μM ([11]; microsomes) [min]	microsomal CLint at 0.5 μM ([11]; microsomes) [µL/min/mg]	chromatographic logD [14]	Papp at 5 h, 10 μM [15] [×10⁻⁶ cm/s]	also measured
COc1ccc(CNC(=O)C2CCN([C@H](C)c3ccccc3)CC2)cc1 [Compound 3]	0.06 °C and 0.06 ± 0.05 °C	highly permeable	83.80	3	2.35	> 22.1	> 22.3	12	94	231	29.5	–	–	–	–	–	–	–	–	–	metabolic stability (in words) [3]: improved stability
COc1ccc(CC(=O)N2CCN([C@@H](C)c3cccc4ccccc34)CC2)cc1 [Compound 8]	0.28 ± 0.05 °C	–	–	–	–	–	–	–	–	–	–	84.48	> 22.9	> 15.8	186	14.9	7.97	348	4.56	1.07	–
COc1ccc(CNC(=O)C2CCN(C(C)c3cccc4ccccc34)CC2)cc1 (centres unmarked) [MMV1634397]	6.26 °C and 6.3 ± 0.3 °C	–	–	–	–	–	–	–	–	–	–	54.08	> 24.6	> 21.6	80	35	21.5	129	4.17	1.07	inhibition of SARS-CoV-2 PL^pro [16]: ≥ 80%; decrease of viral replication (viral load by RT-PCR) ([17]; 10 μM): over 50%; half-life at 2 μM [12]: 433 min; HLM CLint(mic) ([10]; human liver microsomes): 80.40 µL/min/mg; HLM T 1/2 ([10]; human liver microsomes): 34.48 min; metabolic stability (in words) ([10]; liver microsomes): moderately stable; permeability (in words) [15]: medium to low permeable
COc1ccc(CC(=O)NC2CCN([C@H](C)c3cccc4ccccc34)CC2)cc1 [Compound 6]	4.8 °C and 4.8 ± 0.1 °C	highly permeable	90.29	4.28	1.74	> 24.9	> 12.7	88.4	171	31.4	16.2	–	–	–	–	–	–	–	–	–	half-life at 2 μM [12]: 2310 min
N=C(N)NCCCCC(=O)Nc1cc(C(F)(F)F)cc(NC(=O)c2cc(C(=O)Nc3cc(C(F)(F)F)cc(NC(=O)CCCCNC(=N)N)c3O[C@@H]3CCNC3)ncn2)c1O[C@@H]1CCNC1 [Brilacidin, reference compound]	–	–	–	–	–	–	–	–	–	–	–	–	–	–	–	–	–	–	–	–	inhibition of SARS-CoV-2 PL^pro [16]: ≥ 80%; decrease of viral replication (viral load by RT-PCR) ([17]; 1 μM): over 50%
